Each structure is given as a SMILES string.

Turning to `Cc1cn(C2CC(O)(COCc3ccccc3)C(CO)O2)c(=O)n(COCc2ccccc2)c1=O` (stereo not drawn), the melting point fell in the range of 83 to 84 °C. As for `CN1CCCN(C2=Nc3cc(Cl)ccc3Nc3ccccc32)CC1`, the figure is 143 to 145 °C; as for `O=C(COc1ccc(Cl)cc1)N[C@@H](Cc1ccccc1)C(=O)CSCc1ccco1`, 95 to 98 °C. The compound `O=C(NC1CCC(CCN2CCC(c3cccc4c3CCO4)CC2)CC1)C1CC1(F)F` (stereo not drawn) yielded a melting point of 199 °C. Take `COc1cnc(N2CCN(c3ccc(N)cc3)CC2)nc1`: the melting point turned out to be 125 °C. To `COc1cc(C=O)cc2c(N(C)C)cc(C)nc12` belongs 127 to 129 °C; to `COC(=O)c1nn(-c2ccc(Cl)cc2Cl)c(-c2ccc(Cl)cc2)c1CF`, 114 °C.

For the compound `CC1=C(Cc2ccc(Cl)cc2)C(=O)C2C=CC=CC2C1=O` (stereo not drawn), the melting point was 134 to 135 °C. For `CC(O)(c1ccccc1)c1ccncc1` (stereo not drawn), the melting point fell in the range of 141 to 144 °C. As for `COC(=O)c1cc(-c2c(OC)cccc2OC)n(-c2ccc(NS(=O)(=O)c3ccc(C)cc3)cc2C2CCCC2)n1`, the figure is 200 to 230 °C. `CS(=O)(=O)c1nccc(Oc2ccc(NC(=O)c3cc(F)cc(N4CCOCC4)c3)c3ccccc23)n1` yielded a melting point of 173 to 175 °C.

`O=C(O)Cc1c(C(=O)c2ccc3c(c2)OCCO3)[nH]c2cc(Cl)ccc12` gave a melting point of 233 °C. To `Cc1cc(NC(=O)C(C)(O)COc2cccc(C(F)(F)F)c2)ccc1[N+](=O)[O-]` (stereo not drawn) belongs 84 to 87 °C; to `CCSCc1c(S(C)(=O)=O)ccc(C(=O)O)c1Cl`, 172 to 174 °C; to `CC(C)(C)OC(=O)NCCNC(=O)c1ccc(Cl)cn1`, 106 to 108 °C. To `CCOc1cc2c(cc1OC(C)=O)OCS2` belongs 131 °C; to `C[Si](C)(C)CCSCCCNC(=O)n1cc(F)c(=O)[nH]c1=O`, 114 to 115 °C; to `Cc1ccc(S(=O)(=O)NC(=O)c2cccc(OCc3csc(-c4ccccc4)n3)c2)cc1`, 170 to 172 °C. To `CC(C)NC1=NS(=O)(=O)c2cc(C(C)(C)C)ccc2N1` belongs 128 to 130 °C; to `CCCCCCCC(=O)NCCCCCCO`, 77 to 78 °C; to `CC(=O)c1cc(Cc2ccccc2)c(O)c2ccccc12`, 139 to 141 °C. `COc1cc2nc(-c3cc(C)c(OCCO)c(C)c3)[nH]c(=O)c2cc1OC` came in with a melting point of more than 300 °C.

Regarding `Cc1cc(C2=NN(C(=O)OC(C)(C)C)[C@H](C)Cc3cc4c(cc32)OCO4)cc(C)c1[N+](=O)[O-]`, the melting point was in the range of 222 to 223 °C.

`CONS(=O)(=O)c1cccc([N+](=O)[O-])c1`: the melting point is 111 to 113 °C.

The compound `Cc1cccc(C(=O)NN=Cc2ccc3ccccc3n2)c1` came in with a melting point of 188 °C. The compound `CCCCc1ncc(/C=C(\Cc2ccc(N(C)C)cc2)C(=O)O)n1Cc1ccccc1Cl` gave a melting point of 171 to 172 °C. To `O=C(O)c1ccc(OCCNC(=O)C2Cc3ccccc3N2S(=O)(=O)c2ccc(-c3cccc(C(F)(F)F)c3)cc2)c(Cl)c1` (stereo not drawn) belongs 135 to 140 °C; to `CCn1c(=O)c2c(ncn2CCCCC(C)=O)n(CC)c1=O`, 68 to 69 °C. Consider `Nc1ccc(CCC(=O)c2ccccc2)cc1`, for which the melting point lay within 76 to 78 °C.

The compound `Cn1cc(CCN2CCC3(CC2)CNC(=O)O3)c2ccccc21` showed a melting point of 158 to 161 °C. As for `Nc1cc(S(=O)(=O)c2ccccc2)c([N+](=O)[O-])c2cccnc12`, the figure is 211 to 213 °C; as for `CCCCNC(=O)OCCCC(=O)c1ccccc1`, 52 to 58 °C. Turning to `O=C(c1ccccc1)n1c(SC(F)(F)F)cc(-c2ccc(F)cc2)c1-c1ccc(F)cc1`, the melting point came out at 106 °C. As for `CN(CCc1ccncc1)S(=O)(=O)C1CCCCC1`, the figure is 94 to 96 °C; as for `COc1ccc(C(=O)NCC(O)CC(=O)O)cc1OCc1ccccc1` (stereo not drawn), 158 to 160 °C. As for `COC(=O)c1ccc(-c2csc(-c3ccc4c(c3)C(C)(C)CCC4(C)C)c2)cc1`, the figure is 108 to 110 °C.

`Cc1nccn1-c1cccc(-n2cnc3cc(-c4ccoc4)ccc32)c1` showed a melting point of 105 to 107 °C. To `Cc1nn(-c2cccnc2)c(-c2ccccc2)c1CC(=O)O` belongs 197 to 199 °C; to `CC(C)(C)CCCOC1CCC2C3C(=O)C=C4CC(O)CCC4(C)C3CCC12C` (stereo not drawn), 203 to 205 °C; to `CC1(C)c2cccnc2C(=O)c2ccc(Cl)cc2S1(=O)=O`, 189 to 191 °C. `Cc1ccc([N+](=O)[O-])cc1NC(=N)N` displayed a melting point of 135 to 142 °C. In the case of `CC1CC(=O)NN=C1c1ccc(N)cc1` (single isomer, unassigned; (-)), the melting point was 203 to 204 °C.

The compound `CCCCN(CCCC)c1ccc(C=CC=CC=CC2=C(C#N)C(=C(C#N)C#N)OC2(c2ccccc2)C(F)(F)F)c(OC)c1` (stereo not drawn) registered a melting point of 208 to 210 °C. To `COc1cc(C(C)C)ccc1C1(O)C(=O)c2ccc(N)c(NC(C)=O)c2C1=O` (stereo not drawn) belongs 124 to 131 °C; to `O=C(O)c1[nH]c2ccc(Cl)cc2c1S(=O)c1ccccc1` (stereo not drawn), 183 to 185 °C; to `CCc1nn(C2CCCC2)c2c1CCn1c-2nnc1C(C)(C)C`, 150 to 151 °C. As for `CC(=O)N1CCc2nc(Nc3nc(-c4ccccc4)cs3)nc(-c3ccccc3)c2C1`, the figure is 130 to 132 °C. In the case of `O=C(O)c1ccc(-c2ccc(NS(=O)(=O)c3cccnc3)cc2)[nH]c1=O`, the melting point was more than 260 °C. Consider `COC1CSC2=C(SC1)C(OC(=O)N1CCN(C)CC1)N(c1ccc3ccc(C)nc3n1)C2=O` (stereo not drawn), for which the melting point is 220 °C. For the compound `O=C(Nc1cccc(NC2=CC(=O)c3ccccc3C2=O)c1)c1ccccc1`, the melting point is 185 °C. To `O=C(SCCC(=O)N1CCC[C@H]1C(=O)O)c1ccccc1` belongs 101 to 102 °C; to `CCOC(=O)c1c(SC)c(N=O)c2ccccn12`, 134 to 135 °C; to `CC(C)CC(OC(=O)c1ccncc1)C(=O)OCc1ccccc1` (racemic), 49 to 50 °C. Turning to `COc1ccc(C2=NO[C@]3(CCOC3)C2)cc1OC1CCCC1`, the melting point amounted to 110 °C. The compound `Cc1ccc(-c2cccc(/C=C/C(=O)Nc3ccc(CN4CCCCC4CCO)cc3)c2)cc1` (stereo not drawn) displayed a melting point of 142 to 143 °C. The compound `CCC(CC(Cc1cccc2ccccc12)C(=O)N[C@@H](Cc1c[nH]cn1)C(=O)N[C@H](C=NNC(N)=O)CC(C)C)c1ccccc1` (stereo partly drawn) registered a melting point of 105 to 109 °C. As for `CSc1ccc(-c2nn(Cc3ccccc3)c(=S)cc2-c2ccc(F)cc2)cc1`, the melting point was found to be 108 °C.

`Cc1ccc(S(=O)(=O)c2ccc(N3CCNCC3)cc2N)cc1` yielded a melting point of 102 to 106 °C. With `CNc1nnc(-c2ccc3occ(-c4ccc(OC(F)(F)F)cc4)c3c2)o1`, the melting point lay within 184 to 185 °C. To `COC(=O)c1nc(Cl)sc1-c1cccc(F)c1` belongs 99 to 100 °C; to `O=C(O)CCCCCCCCCCn1nnnc1S`, 95 to 98 °C; to `C[Si](C)(Cn1cncn1)c1ccc(-c2ccccc2)cc1`, 79 to 86 °C.

As to `CC(=O)N1CCN(CC#CCn2cncc2C)C1=O`, the melting point was 93 to 95 °C.

One may read the melting point as the temperature, or range, at which the solid turns liquid.

These data come from a melting point compilation (Tetko et al.; mined from patent text by program, amines drawn as free bases though some values may be those of a salt).
